From patent publication US11807612B2, “Heterocyclic compound and salt thereof, and luminescent substrate composition” (The University of Electro-Communications, priority 2020, dated 2023)

Experiments:
firefly luciferase (Luc) = firefly luciferase (Luc) (Photinus pyralis, UniProt P08659); conditions: firefly luminescence system; background, PTL 1 to 3; cited from earlier work
[1] = target: T1, Ppy luciferase (derived from North American firefly Photinus pyralis) (Photinus pyralis, UniProt P08659); assay: Luminescence spectrum measurement of luminescent substrates with Ppy luciferase, ATP-Mg; type: biochemical; conditions: for peak top wavelength of luminescence spectrum: substrate solution 100 μM, 1 mg/mL Ppy luciferase, 200 μM ATP-Mg, KPB pH 8.0, room temperature, 180 seconds, FIG. 1
T1 construct: purchased Promega Corporation E1701
T1 sequence (P08659 whole entry): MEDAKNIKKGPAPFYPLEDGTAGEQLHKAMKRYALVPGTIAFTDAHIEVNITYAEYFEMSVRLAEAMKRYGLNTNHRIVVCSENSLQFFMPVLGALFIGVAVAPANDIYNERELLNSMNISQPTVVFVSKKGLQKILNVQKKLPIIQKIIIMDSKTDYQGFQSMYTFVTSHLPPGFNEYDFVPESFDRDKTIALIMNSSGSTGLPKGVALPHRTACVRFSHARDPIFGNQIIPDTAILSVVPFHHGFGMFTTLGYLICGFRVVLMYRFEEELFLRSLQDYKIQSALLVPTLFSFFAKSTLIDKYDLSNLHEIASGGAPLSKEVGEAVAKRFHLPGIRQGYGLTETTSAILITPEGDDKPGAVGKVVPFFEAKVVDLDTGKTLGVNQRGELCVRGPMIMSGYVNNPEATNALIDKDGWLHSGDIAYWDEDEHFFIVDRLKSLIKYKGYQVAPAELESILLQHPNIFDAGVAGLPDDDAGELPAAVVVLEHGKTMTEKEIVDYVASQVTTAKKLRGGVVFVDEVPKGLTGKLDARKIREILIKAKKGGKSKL
Method: The luminescent substrates represented by structural formulae (1-1) and (1-2) that were synthesized as described above, a luminescent substrate represented by the following structural formula (b), and natural firefly luciferin (LH2, produced by Wako Pure Chemical Industries, Ltd.) represented by the following structural formula (d) were each used to measure a luminescence spectrum. Note that the luminescent substrate represented by structural formula (b) was prepared in accordance with Example 1 of JP2014-218456A (PTL 2).
A weak emission fluorescence spectrometer AB-1850 produced by ATTO Corporation was used to measure a luminescence spectrum. Each measured spectrum is a spectrum that has been corrected for detector characteristics (data interval 0.25 nm, measurement range 400 nm to 750 nm).
Recombinant luciferase (QuantiLum® (QuantiLum is a registered trademark in Japan, other countries, or both), catalogue no. E1701) produced by Promega Corporation
After mixing 5 μL of KPB solution (pH 8.0, 500 mM), 5 μL of luminescent substrate solution (100 μM), 5 μL of 1 mg/mL Ppy luciferase solution, and 10 μL of 200 μM ATP-Mg solution at room temperature, luminescence spectrum measurement was performed for 180 seconds using the luminescence spectrum measurement apparatus (AB-1850). The luminescence intensity was compared by the peak top value at this time. The results are illustrated in FIG. 1 and FIG. 2.
FIG. 1 is a luminescence spectrum normalized to give a maximum value for luminescence intensity of 1, and FIG. 2 is a luminescence spectrum illustrating luminescence intensity at each wavelength.

Sequence of firefly luciferase (Luc) (P08659 whole entry): as above

CN(C)c1ccc(/C=C/C=C/C2=N[C@@H](C(=O)O)CS2)cc1 [structural formula (a)]
maximum wavelength of luminescence spectrum / wavelength of emitted light (firefly luciferase (Luc)): roughly 670 nm

CN(C)c1cnc(/C=C/C=C/C2=N[C@@H](C(=O)O)CS2)s1 [structural formula (1-2), (S)-2-((1E,3E)-4-(5-(dimethylamino)thiazol-2-yl)buta-1,3-dien-1-yl)-4,5-dihydrothiazole-4-carboxylic acid]
luminescence intensity (peak top value) relative to luminescent substrate of structural formula (b) ([1]; same conditions, FIGS. 1 and 2): approximately four times higher | luminescence intensity (peak top value) relative to natural firefly luciferin ([1]; same conditions, FIGS. 1 and 2): approximately half | peak top wavelength of luminescence spectrum [1]: approximately 680 nm

CN(C)c1ncc(/C=C/C=C/C2=N[C@@H](C(=O)O)CS2)s1 [structural formula (1-1), (S)-2-((1E,3E)-4-(2-(dimethylamino)thiazol-5-yl)buta-1,3-dien-1-yl)-4,5-dihydrothiazole-4-carboxylic acid]
luminescence intensity (peak top value) relative to luminescent substrate of structural formula (b) ([1]; same conditions, FIGS. 1 and 2): approximately four times higher | luminescence intensity (peak top value) relative to natural firefly luciferin ([1]; same conditions, FIGS. 1 and 2): approximately half | luminescence wavelength compared with luminescent substrate of structural formula (b) ([1]; same conditions, FIGS. 1 and 2): shorter wavelength | peak top wavelength of luminescence spectrum [1]: approximately 630 nm

O=C(O)[C@H]1CSC(c2nc3ccc(O)cc3s2)=N1 [natural firefly luciferin, firefly luciferin]
maximum wavelength of luminescence spectrum / wavelength of emitted light (firefly luciferase (Luc)): approximately 560 nm

CN(C)c1ccc(/C=C/C=C/C2=N[C@@H](C(=O)O)CS2)nc1 [structural formula (c)]
maximum wavelength of luminescence spectrum / wavelength of emitted light (firefly luciferase (Luc)): roughly 670 nm
